Results reported in publication PMC8455565 (Scientific Reports, 2021).

Assays:
JAK3 = target: T1, JAK3 (Homo sapiens, UniProt P52333); assay: Kinase selectivity biochemical assay, JAK3; settings: biochemical assay
T1 sequence (P52333 1-1124): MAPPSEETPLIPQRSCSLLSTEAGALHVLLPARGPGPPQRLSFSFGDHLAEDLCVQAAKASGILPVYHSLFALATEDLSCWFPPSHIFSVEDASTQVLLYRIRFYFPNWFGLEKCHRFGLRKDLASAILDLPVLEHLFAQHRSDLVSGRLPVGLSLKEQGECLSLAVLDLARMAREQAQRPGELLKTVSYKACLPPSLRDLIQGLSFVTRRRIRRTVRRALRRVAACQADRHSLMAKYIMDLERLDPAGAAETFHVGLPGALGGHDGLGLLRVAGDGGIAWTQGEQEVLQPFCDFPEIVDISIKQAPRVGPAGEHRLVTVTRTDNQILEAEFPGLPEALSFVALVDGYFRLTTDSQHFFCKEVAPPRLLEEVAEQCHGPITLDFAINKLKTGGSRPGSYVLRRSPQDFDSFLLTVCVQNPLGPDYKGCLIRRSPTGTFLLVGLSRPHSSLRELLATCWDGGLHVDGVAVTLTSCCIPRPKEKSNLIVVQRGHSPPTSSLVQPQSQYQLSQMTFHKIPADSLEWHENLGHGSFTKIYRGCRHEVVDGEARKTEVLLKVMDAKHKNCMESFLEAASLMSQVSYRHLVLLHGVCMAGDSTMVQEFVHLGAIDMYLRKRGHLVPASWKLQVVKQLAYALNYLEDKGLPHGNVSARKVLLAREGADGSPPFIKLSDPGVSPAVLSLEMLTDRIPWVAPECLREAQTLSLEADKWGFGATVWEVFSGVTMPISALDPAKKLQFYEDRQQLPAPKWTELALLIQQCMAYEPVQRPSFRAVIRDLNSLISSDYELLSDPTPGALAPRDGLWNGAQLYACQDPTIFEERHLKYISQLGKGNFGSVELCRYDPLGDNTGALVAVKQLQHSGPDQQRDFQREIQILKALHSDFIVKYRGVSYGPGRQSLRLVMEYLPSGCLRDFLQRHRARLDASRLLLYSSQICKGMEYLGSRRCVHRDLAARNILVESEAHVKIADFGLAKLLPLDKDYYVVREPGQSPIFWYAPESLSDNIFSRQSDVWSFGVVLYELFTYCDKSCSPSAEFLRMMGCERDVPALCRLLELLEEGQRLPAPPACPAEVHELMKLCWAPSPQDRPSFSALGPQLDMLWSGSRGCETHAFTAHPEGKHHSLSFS

B cells [1] = assay: B cell inhibition in whole blood; format: cell-based
A431 = assay: Cell growth inhibition in EGFR overexpressed A431; format: cell-based; settings: Homo sapiens, A-431; cellular level; read-out: IC50, cell growth inhibition in EGFR overexppressed A431
BTK [2] = target: T2, BTK (Homo sapiens, UniProt Q06187); assay: hBTK Lanthascreen biochemical activity
T2 sequence (Q06187 whole entry): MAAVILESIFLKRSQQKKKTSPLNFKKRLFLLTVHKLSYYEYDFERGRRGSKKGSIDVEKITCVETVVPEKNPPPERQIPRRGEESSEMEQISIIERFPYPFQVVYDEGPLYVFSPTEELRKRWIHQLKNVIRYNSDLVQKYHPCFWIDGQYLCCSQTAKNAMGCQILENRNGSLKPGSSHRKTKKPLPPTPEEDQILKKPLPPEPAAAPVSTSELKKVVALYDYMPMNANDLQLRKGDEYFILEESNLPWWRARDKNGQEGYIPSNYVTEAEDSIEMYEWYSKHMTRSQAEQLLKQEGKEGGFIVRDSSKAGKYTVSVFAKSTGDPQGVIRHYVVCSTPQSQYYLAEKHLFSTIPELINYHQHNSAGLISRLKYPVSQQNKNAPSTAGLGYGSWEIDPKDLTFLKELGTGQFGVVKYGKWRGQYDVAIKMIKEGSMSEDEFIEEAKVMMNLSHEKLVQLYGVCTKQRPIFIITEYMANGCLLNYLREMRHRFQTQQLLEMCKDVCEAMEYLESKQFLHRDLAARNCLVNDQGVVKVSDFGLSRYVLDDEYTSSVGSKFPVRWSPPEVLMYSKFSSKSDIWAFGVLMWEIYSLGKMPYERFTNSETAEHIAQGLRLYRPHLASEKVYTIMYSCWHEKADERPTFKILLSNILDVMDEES

BTK [3] = target: T2, BTK; assay: BTK occupancy in B cell line (Ramos cells, biotinylated probe, AlphaScreen); format: cell-based
Experimental: A total of 5 × 10^5 Ramos cells/well were plated in 96-well PDL-coated plates in DMEM with high glucose (GIBCO) supplemented with 10% FBS. Serial dilutions of LY3439943 in DMSO (final DMSO concentration, 0.4%) were incubated with the cells for 1 h at 37 °C. An equal volume of a covalent biotinylated BTK probe was added (final concentration, 167 nM), and the cells were incubated for another 1 h at 37 °C. The cells were lysed, and the amount of BTK was determined using the AlphaScreen IgG Detection Kit (Perkin Elmer 6760617R) and an anti-BTK antibody (Thermo Scientific Cat# MA5-14929) following the manufacturer’s instructions. The signal was measured at 615 nm with an Envision plate reader (Perkin Elmer).

B cells [4] = assay: Antigen-presentation assay (OVA-preactivated B cells with DO11.10 T cells); format: cell-based, mouse
Experimental: DO11.10 and BALB/C mice were purchased from The Jackson Laboratory and housed in accordance with the policies of the IACUC of Eli Lilly and Company. BALB/C mice were primed with 10 µg/ml ovalbumin (OVA) in Alhydrogel (InvivoGen, CA, USA) at a 2:1 ratio and boosted with 10 µg/ml OVA in PBS 2 weeks after priming. BALB/C mice were sacrificed 4 days after boosting, and B cells were purified from splenocytes using CD19 microbeads (Miltenyi Biotec) for positive selection. B cells were preincubated with HM71305/LSN3359180 for 1 h before the addition of OVA protein or OVA323-339 peptide, and T cells were positively isolated from DO11.10 transgenic mice using CD4 microbeads (Miltenyi Biotec). The supernatants were collected after 18 h, and IL-2 was measured by ELISA using mouse IL-2 DuoSet (DY402, R&D Systems). FACS analysis of CD69 (H1.2F3, Biolegend), CD86 (B7-2, BD Biosciences) and H2-IA/IE (M5/114.15.3, BD Biosciences) was performed using BD LSR Fortessa, and data were analyzed by FlowJo10 (FlowJo, LLC).

CTLL-2 = assay: IL-2 induced T cell proliferation in CTLL-2; format: cell-based; settings: Mus musculus, cellular level
BTK [5] = target: T2, BTK; assay: Kinase selectivity biochemical assay (FRET), BTK; settings: Supplementary Table 1, biochemical assay
BTK [6] = target: T2, BTK; assay: BTK occupancy in whole blood ex vivo; format: cell-based; design: from tissue; host or cells: whole blood

IC50 (JAK3): 39 nM
IC50 (B cells [1]): 440 nM
IC50 (A431): > 500 nM
IC50 (BTK [2]): 3 nM
IC50 (BTK [3]): 6 nM
IC50 (B cells [4]; Mus musculus, B-cell, in vivo preactivated B cells, roughly, read-out: IC50 effect on the B cells (CD80 and CD86 expression)): ~100 nM
IC50 (BTK [5]): 3 nM
IC50 (BTK [6]): 170 nM
SMILES: C=CC(=O)Nc1cccc(Oc2nc(Nc3ccc(N4CCN(C(C)C)CC4)cc3)nc3ccoc23)c1 [HM71035]
B cell-dependent T cell activation (IL-2 secretion, CD69 expression on T cells) (B cells [4]; B cells preincubated 1 h with compound, coculture with DO11.10 T cells): reduced in a dose-dependent fashion
IC50 (CTLL-2): > 500 nM
